Reference: PubChem BioAssay (NCI)
“And” between values parts separate entries of the source, which are not always exact repeats. Identical values can stand only once.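 All cell lines were grown in 96-well plates and treated with compound for 48 hours. GI50: concentration for 50% inhibition of growth. TGI is the concentration that stops growth completely.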

What was measured:
Assay in all cases: inhibition of tumour cell growth, NCI panel, 48 h
MDA-MB-231 breast = tested on: MDA-MB-231 breast
NCI/ADR-RES ovarian = tested on: NCI/ADR-RES ovarian
MCF7 breast = tested on: MCF7 breast
HS 578T breast = tested on: HS 578T breast
MDA-MB-435 = tested on: MDA-MB-435
PC-3 prostate = tested on: PC-3 prostate
T-47D breast = tested on: T-47D breast

| SMILES | GI50 (MDA-MB-231 breast) [µM] | TGI (MDA-MB-231 breast) [µM] | GI50 (NCI/ADR-RES ovarian) | TGI (NCI/ADR-RES ovarian) | GI50 (MCF7 breast) [µM] | TGI (MCF7 breast) [µM] | GI50 (HS 578T breast) [µM] | TGI (HS 578T breast) [µM] | GI50 (MDA-MB-435) [µM] | TGI (MDA-MB-435) [µM] | GI50 (PC-3 prostate) [µM] | TGI (PC-3 prostate) [µM] | GI50 (T-47D breast) [µM] | TGI (T-47D breast) [µM] |
| --- | --- | --- | --- | --- | --- | --- | --- | --- | --- | --- | --- | --- | --- | --- |
| O=C1CC(=O)OC(c2ccc([N+](=O)[O-])cc2)O1 | 2.21 | 5.09 | 3.19 µM | 14.1 µM | 1.59 | 3.84 | 2.7 | 11.9 | 2.59 | 8.62 | 2.36 | 6.43 | 1.93 | 4.1 |
| CC(C)[C@H]1C(=O)N[C@@H](CCCN=C(N)N)C(=O)NCC(=O)N[C@@H](CC(=O)O)C(=O)N[C@H](Cc2ccccc2)C(=O)N1C | 1.83 | > 28.9 | > 100 µM | > 100 µM | 1.4 | 3.32 | 19.8 | > 100 | 0.289 | 0.895 | > 100 | > 100 | 2.87 | > 29.4 |
| COC1CC(OC(=O)c2ccccc2)C(OC(=O)c2ccccc2)C(C)O1 (configuration not stated) |  | > 100 |  | > 100 µM |  | > 100 |  | > 100 |  | > 100 |  | > 100 |  | > 100 |
| O=C1Nc2cccc3cc(NCC(O)CCl)cc1c23 (configuration not stated) |  | > 100 |  | > 100 µM |  | > 100 |  | > 100 |  | > 100 |  | > 100 |  | > 100 |
| Cc1cc(N/N=C/c2nc(-c3ccc(Cl)cc3)oc2C)c2cc(Cl)ccc2n1 | 3.25 | 10.3 | 2.19 µM | 5.63 µM | 1.35 | 2.97 | 3.42 | 14.7 | 1.68 | 3.44 | 2.1 | 4.81 | 1.69 | 3.36 |
| COc1ccc(C2CC(n3nnnc3-c3ccccc3)=NN2)cc1 (configuration not stated) | 0.564 | 12.8 | 4.3 µM | 33.7 µM | 2.68 | 38.7 | 19.7 | 70.3 | 0.974 | 15.6 | 6.28 | 72.3 | 1.16 | 87.3 |
| Cn1cc(CNCC2CCN(c3ncc(C(=O)NO)cn3)CC2)c2ccccc21 | 0.04 | 5.58 | 0.107 µM | 5.59 µM | < 0.01 | 2.53 | 0.0185 | 42.6 | 0.012 | 0.123 | 0.012 | 18 | < 0.01 | 0.543 |
| CCOc1c(Cl)cc(CNC(C)C(O)c2ccccc2)cc1OC (configuration not stated) | 15.6 | 54.7 | 20.2 µM | 59.1 µM | 17.8 | 45.2 | 23.5 | 93 | 16.2 | 32.3 | 30.7 | > 100 | 16.5 | 46.5 |
| COC(=O)CCCCCN=Cc1c(O)c(O)c(C(C)C)c2cc(C)c(-c3c(C)cc4c(C(C)C)c(O)c(O)c(C=NCCCCCC(=O)OC)c4c3O)c(O)c12 | 1.36 | > 32.5 | 9.04 µM | > 32.5 µM | 1.04 | 5.83 | 1.68 | > 32.5 | 1.82 | > 32.5 | 1.03 | > 32.5 | 1.25 | 29.4 |
| COc1cc2nc(-c3ccc(C(F)(F)F)cc3)cc(OCCCN3CCCCC3)c2cc1OC | 0.536 | 4.04 | 0.522 µM | 14.8 µM | 1.16 | 4.39 | 2.15 | 9.94 | 1.23 | 7.08 | 1.34 | 11.2 | 0.454 | 22.4 |
| O=C(O)CSc1ncccc1[N+](=O)[O-] |  | > 100 |  | > 100 µM |  | > 100 |  | > 100 |  | > 100 |  | > 100 |  | > 100 |
| Cc1nc(C(N)=S)sc1C(=O)C/C(=N/N)C(=O)Nc1cccc(Cl)c1C |  | > 100 |  | > 100 µM |  | > 100 |  | > 100 |  | > 100 |  | > 100 |  | > 100 |
| COc1ccc(-c2cn[nH]c2-c2cc(OC)c3c(c2)OCCO3)cc1 | 0.179 | 10.9 | 0.0549 µM | 41.5 µM | 0.061 | 32.6 | 0.231 | 34.4 | 0.0266 | 0.0977 | 0.128 | 39 |  |  |
| C[C@]12CC[C@@H]3c4ccc(O)cc4C(O)C[C@H]3[C@@H]1CCC2=O (some centres not stated) | > 100 | > 100 | > 100 µM | > 100 µM | > 100 | > 100 | > 100 | > 100 | > 100 | > 100 | > 100 | > 100 | > 100 | > 100 |
| Oc1ccccc1-c1nc2c3ccccc3c3ccccc3c2[nH]1 | 1.96 | 4.44 | 8.43 µM | 25.6 µM | 1.99 | 13.4 | 12.4 | 29.7 | 6.23 | 18.7 | 3.49 | 14.8 | 1.89 | 12.8 |
| c1cc(CNC2C3CCC(C3)C2c2c[nH]c3ccccc23)cc(CNC2C3CCC(C3)C2c2c[nH]c3ccccc23)c1 (configuration not stated) |  | 2.81 | 1.21 µM and 0.607 µM | 2.6 µM and 1.99 µM |  |  |  | 3.32 |  |  |  | 2.7 |  |  |
| Fc1cccc(Cl)c1/C=N\N=C1c2ccccc2-c2ccccc21 |  | > 100 |  | > 100 µM |  | > 100 |  | > 100 |  | > 100 |  | > 100 |  | > 100 |
| Cc1ccc(S(=O)(=O)N=Nc2c(O)[nH]c3c(Cl)cc(Cl)cc23)cc1 |  | > 100 |  | > 100 µM |  | > 100 |  | > 100 |  | > 100 |  | > 100 |  |  |
| CCN1CSC(=S)N(CC)C1 |  | 73.9 |  | > 100 µM |  | > 100 |  | > 100 |  | > 100 |  | > 100 |  | > 100 |
| COc1ccc(CN2c3ccccc3CCc3ccccc32)cc1F | 1.35 | 79.7 | 0.456 µM | > 100 µM | 0.352 | > 100 | 0.487 | > 100 |  |  | 0.489 | > 100 | 0.394 | > 100 |
